Data on 1 compound can be found in ChEMBL document CHEMBL5247598 (Eur J Med Chem, 2022).

The structures appear in SMILES notation. Active and inactive are the calls of the source. The rule behind the calls is not given here.

For data set [1], the system named is NCI/ADR-RES. In words: Reversal of P-gp-mediated multidrug resistance in human NCI-ADR-RES cells assessed as change in ABCB1 expression level at 1 to 10 uM incubated for 24 hrs in presence of doxorubicin by Western blot analysis. It counts as functional, cell-based. The conditions noted are these: dose 1-10 µM.
For data set [2], the system named is NCI-ADR-RES. In words: Inhibition of PI3K/AKT signaling pathway in human NCI-ADR-RES cells assessed as decrease in PI3K phosphorylation at 3 uM incubated for 24 to 48 hrs in presence of doxorubicin by Western blot analysis. The conditions noted are these: time 24-48 hrs. It counts as cell-based.
Data set [3] relates to NCI/ADR-RES. In words: Reversal fold, ratio of doxorubicin IC50 to doxorubicin IC50 in presence of 10 uM test compound for reversal of P-gp-mediated multidrug resistance in human NCI-ADR-RES cells incubated for 48 hrs by MTT assay. The class given is functional.
In data set [4] the test system is NCI/ADR-RES. In words: Induction of apoptosis in human NCI-ADR-RES cells assessed as early apoptotic cells at 3 uM incubated for 24 hrs by Annexin V-FITC and DAPI staining based flow cytometry (Rvb= 0.89 %). The class given is functional.
The subject of data set [5] is A549. The data set is described as follows: Antiproliferative activity against human A549 cells assessed as inhibition of cell growth at 50 uM incubated for 48 hrs by MTT assay. It counts as functional, cell-based.
The nature of data set [6]: Cytotoxicity against human HEK293T cells assessed as reduction in cell viability incubated for 48 hrs by MTT assay. It counts as toxicity, cell-based, HEK-293T.
The test system of data set [7] is HEK-293T. The data set is described as follows: Cytotoxicity against human HEK293T cells assessed as cell survival rate at 10 uM incubated for 48 hrs by MTT assay. It counts as toxicity, cell-based.
In data set [8] the test system is HEK-293T. The data set is described as follows: Cytotoxicity against human HEK293T cells assessed as inhibition of cell growth at 50 uM incubated for 48 hrs by MTT assay. The class given is toxicity, cell-based.
In data set [9] the test system is NCI/ADR-RES. The data set is described as follows: Induction of apoptosis in human NCI-ADR-RES cells assessed as viable cells at 8 uM incubated for 24 hrs in presence of doxorubicin by Annexin V-FITC and DAPI staining based flow cytometry (Rvb= 97.9 %). It counts as functional. The conditions noted are these: read-out: Activity.
For data set [10], the system named is NCI/ADR-RES. In words: Induction of apoptosis in human NCI-ADR-RES cells assessed as necrotic cells at 3 uM incubated for 24 hrs by Annexin V-FITC and DAPI staining based flow cytometry (Rvb= 0.55 %). It counts as functional.
The subject of data set [11] is NCI/ADR-RES. The data set is described as follows: Reversal of P-gp-mediated multidrug resistance in human NCI-ADR-RES cells assessed as potentiation of doxorubicin-induced cytotoxicity incubated for 48 hrs by MTT assay. It counts as functional, cell-based.
Data set [12] concerns MCF7. The data set is described as follows: Antiproliferative activity against human MCF7 cells assessed as inhibition of cell growth at 50 uM incubated for 48 hrs by MTT assay. It counts as functional, cell-based.
The test system of data set [13] is HCT-8. In words: Antiproliferative activity against human HCT-8 cells assessed as inhibition of cell growth at 50 uM incubated for 48 hrs by MTT assay. The class given is functional, cell-based.

For the compound `C=C1[C@H](OC(C)=O)[C@@H](OC(C)=O)[C@@H](OC(C)=O)C(C)(C)/C=C/[C@H](C)[C@H](OC(=O)c2ccccc2)[C@@]2(O)C[C@@](C)(OC(=O)C(C)(C)C)[C@H](OC(C)=O)[C@@H]2[C@H]1OCC(C)C`, the result in data set [1] was Active. Also, in data set [2], the inhibition result was “Active”. Besides, in [3], the “Ratio IC50” value is on record as 116.6. The Activity in data set [4] is listed as 0.67%; in [7] it was “Non-Toxic”; in [8] it was “Non-Toxic”; in [10], 1.06%. Besides, the result in data set [5], in data set [12] and in data set [13] was inactive. The IC50 at 48 h in data set [6] is 56.3 µM. Further, the viability at 8 µM in data set [9] is 87.1%. In data set [11], the 50% effective concentration (EC50) was found to be 0.182 µM.
